Experimental data reported in patent US8715920B2, “Composition for preserving platelets during photosensitization” (Biovec Transfusion, LLC, priority 2010, dated 2014).
“Also recorded” adds a separate entry of the source. Positions of bridges follow the written chain, without caps; N, C: chain ends. Non-standard residues stand in square brackets, D forms with d. Residues, ends and D or L forms follow the SMILES beside them. hArg = N=C(N)NCCCC[C@H](N)C(=O)O; Mpa = O=C(O)CCS

How the values were obtained:
[1] = Photodegradation upon exposure to ultraviolet light by HPLC analysis; conditions: for relative stabilities: assuming the dosage codes were equivalent
[2] = more sensitive to the αPTT; cited from earlier work

Row | Structure (SMILES) | relative stabilities ([1]; UV282) | photodegradation profile, in words ([1]; UV 282 nm) | HPLC peak relative to unexposed control ([1]; UV 282 nm, exposure A) [%] | HPLC peak relative to unexposed control ([1]; UV 282 nm, remainder of the exposures (after exposure A)) | relative stabilities ([1]; UV308) | photodegradation, in words ([1]; UV 308 nm) | effect on PT and αPTT [2] | HPLC peak relative to unexposed control ([1]; UV 282 nm, exposure B) [%] | HPLC peak relative to unexposed control ([1]; UV 282 nm, exposure C) [%] | HPLC peak relative to unexposed control ([1]; UV 282 nm, exposure D) [%] | HPLC peak relative to unexposed control ([1]; UV 282 nm, exposure F) | HPLC peak relative to unexposed control ([1]; UV 308 nm, exposure A) [%] | HPLC peak relative to unexposed control ([1]; UV 308 nm, exposure B) [%] | HPLC peak relative to unexposed control ([1]; UV 308 nm, exposure C) [%]
1 | N=C(N)NCCCC[C@@H]1NC(=O)CCSSC[C@@H](C(N)=O)NC(=O)[C@@H]2CCCN2C(=O)[C@H](Cc2c[nH]c3ccccc23)NC(=O)[C@H](CC(=O)O)NC(=O)CNC1=O [Eptifibatide] ([Mpa][hArg]GDWPC-NH2; disulfide 1-7) | Argatroban>Tirofiban>>Eptifibatide | faster photodegradation profile than the other compounds tested | 47.0 | below the LLOD | Tirofiban>>Argatroban>>Eptifibatide | substantial photodegradation, but to a lesser extent than at UV282 |  |  |  |  |  |  |  | 
2 | COc1ccc2ccc(S(=O)(=O)N(C)[C@H]3CCN(Cc4csc(C(=N)N)c4)C3=O)cc2c1 [RPR-120844] |  |  |  |  |  |  | prolongs the PT and αPTT in a concentration-dependent manner |  |  |  |  |  |  | 
3 | CCCCS(=O)(=O)N[C@@H](Cc1ccc(OCCCCC2CCNCC2)cc1)C(=O)O [Tirofiban] |  |  | 81.2 |  |  |  |  | 59.9 | 37.7 | 15.4 | below the LLOQ; also recorded: indeterminate | 81.2 | 76.9 | 73.0
